Like-named read-outs stand apart in the source and are kept apart here.
How the values were obtained:
[1] = test system: arthritis induced by arthritogenic adjuvant (M. tuberculosis in squalane); test: anti-arthritic activity in established adjuvant arthritis, topical application; assay type: in vivo, PVG x DA rats; conditions: day 12 to day 16, once daily 5 ml/kg for 4 days, means ± standard error; for increase in paw thickness (mm), tail: DMSO controls 0.9 ± 0.2; for increase in paw thickness (mm), rear paws: DMSO controls 2.2 ± 0.1
[2] = test system: hydroxylapatite-induced paw swelling; conditions: applied ×2; hydroxylapatite 50 mg/ml, 0.15 ml injected
Description: (§1) We have carried out assays for acute anti-inflammatory and anti-arthritic activities by procedures described previously in W. R. Walker, S. J. Beveridge and M. W. Whitehouse, "Anti-inflammatory Activity of a Dermally Applied Copper Salicylate Preparation (Alcusal)", Agents and Actions 10, 38 (1980).
(§2) (a) Male Wistar rats were shaved (ca 20 cm^2) behind the neck and a solution of 0.1 M copper (II) acetate containing 0.25 M phenylbutazone in DMSO was applied (5 ml/kg). The first application was made 2.5 hr before injecting sodium carrageenan solution into the paw (a 0.1 ml injection delivering 1 mg in 0.15 M NaCl) to induce oedema. A second application of the copper phenylbutazone, if made, was at 1.5 hr before the carrageenan was injected.
(§3) The swelling was measured unidimensionally as increase in paw thickness after 2 and 4 hrs using a micrometer screw gauge. Controls were treated with DMSO only.

[3] = test system: sodium carrageenan-induced paw oedema; conditions: 5 ml/kg, 0.1 M copper (II) acetate containing 0.25 M phenylbutazone in DMSO, controls DMSO
Description: as §1, §2, §3

[4] = Bio-distribution of ^64 Cu(PB)2.x DMSO after topical application to rats; assay type: in vivo, male white rats; conditions: for Bio-distribution of ^64 Cu as % of Original Applied, Faeces: assumed faecal output; for Bio-distribution of ^64 Cu as % of Original Applied, Blood (20 ml): assumed total blood volume; for Bio-distribution of ^64 Cu as % of Original Applied, Urine: assumed urine output
Description: (1) The copper (II) phenylbutazone complex labelled with ^64 Cu was prepared as follows: Radioactive copper (II) acetate containing 3 mCi of ^64 Cu (A.A.E.C. Lucas Heights) was mixed with copper (II) acetate monohydrate (0.250 g), phenylbutazone (0.964 g) and dissolved in DMSO (10 ml). Glycerol (2.5 ml) was added later.
Six male white rats (average weight 250 g) were anaesthetised with halothane and an area of skin (ca 20 cm^2) immediately below the neck was shaved with electric hair clippers. Two aliquots (each 0.75 ml) were applied to each rat, whilst anaesthetised, over a period of one hour.
Each rat was placed separately in an experimental cage which permitted collection of both urine and faeces. At times of 6, 24 and 48 hours after topical application, two rats were anaesthetised with ether and euthenased by decapitation in a guillotine. Each organ except the thymus, spleen and the adrenals were cut into two samples for more accurate counting. This was done on a Packard automatic γ spectrometer for periods from 1 to 10 minutes.
All counts were corrected to zero time per gram of wet tissue. After 24 and 48 hours, the faeces were dry and the activity in them is not recorded in FIG. 3.
In Table 1, the results for the location in the rats of the ^64 Cu activity at 6, 24 and 48 hours after topical application are shown.

[5] = Cu^2+ + 2HPB = [Cu(PB)2] + 2H^+, room temperature, DMSO, absorbance at 430 nm
Description: The following solutions were prepared in DMSO using stock solutions of 0.01 M copper (II) acetate (A) and 0.20 M phenylbutazone (B)
and the spectra were measured using a Varian Techtron 634S UV-visible spectrophotometer and 1 cm cells.
In FIG. 2, a plot of absorbance (arbitrary scale) at 430 nm versus molar ratio of phenylbutazone (HPB) to copper has been made. […]

[6] = applied ×1 (2.5 hr before carrageenan)
[7] = applied ×2 (2.5 and 1.5 hr before carrageenan)

SMILES: CCCCC1C(=O)N(c2ccccc2)N(c2ccccc2)C1=O [HPB, phenylbutazone, reference compound]
- increase in paw thickness (mm), tail [1]: 0.3 ± 0.1 mm
- increase in paw thickness (mm), rear paws [1]: 1.0 ± 0.2 mm

SMILES: CCCC[c-]1c(=O)n(-c2ccccc2)n(-c2ccccc2)c1=O.CCCC[c-]1c(=O)n(-c2ccccc2)n(-c2ccccc2)c1=O.[Cu+2] [[Cu(PB)2].x(DMSO), copper (II) di(phenylbutazone)]
- % inhibition of paw swelling at 2 hr [2]: 42%
- % inhibition of paw swelling at 4 hr [2]: 76%
- % inhibition of paw swelling at 2 hr [3, 6]: 34%
- % inhibition of paw swelling at 4 hr [3, 6]: 33%
- % inhibition of paw swelling at 2 hr [3, 7]: 65%
- % inhibition of paw swelling at 4 hr [3, 7]: 71%
- increase in paw thickness (mm), tail [1]: 0.3 ± 0.2 mm
- increase in paw thickness (mm), rear paws [1]: 0.4 ± 0.1 mm
- absorption after topical application ([4]; result in words): readily enters the bloom stream
- dermal penetration ([4]; result in words): excellent dermal penetration
- equilibrium constant, log K ([5]; listed as Cu(PB)2. xDMSO): ~4.7
- equilibrium constant, log K ([5]; listed as [Cu(PB)2 ]): ~ 4.7

SMILES: CCCC[c-]1c(=O)n(-c2ccccc2)n(-c2ccccc2)c1=O.CCCC[c-]1c(=O)n(-c2ccccc2)n(-c2ccccc2)c1=O.[64Cu+2] [^64 Cu(PB)2.x DMSO]
- Bio-distribution of ^64 Cu as % of Original Applied, Adrenals ([4]; 6 h): -- (less than 0.004%)
- Bio-distribution of ^64 Cu as % of Original Applied, Brain ([4]; 6 h): 0.02%
- Bio-distribution of ^64 Cu as % of Original Applied, Heart ([4]; 6 h): 0.01%
- Bio-distribution of ^64 Cu as % of Original Applied, Kidney ([4]; 6 h): 0.04%
- Bio-distribution of ^64 Cu as % of Original Applied, Liver ([4]; 6 h): 6.22%
- Bio-distribution of ^64 Cu as % of Original Applied, Skin (application site) ([4]; 6 h): 5.34%
- Bio-distribution of ^64 Cu as % of Original Applied, Spleen ([4]; 6 h): 0.01%
- Bio-distribution of ^64 Cu as % of Original Applied, Thymus ([4]; 6 h): 0.01%
- Bio-distribution of ^64 Cu as % of Original Applied, Faeces ([4]; 6 h): 0.07%
- Bio-distribution of ^64 Cu as % of Original Applied, Blood (20 ml) ([4]; 6 h): 0.09%
- Bio-distribution of ^64 Cu as % of Original Applied, Urine ([4]; 6 h): 0.04%
- Bio-distribution of ^64 Cu as % of Original Applied, Adrenals ([4]; 24 h): -- (less than 0.004%)
- Bio-distribution of ^64 Cu as % of Original Applied, Brain ([4]; 24 h): 0.01%
- Bio-distribution of ^64 Cu as % of Original Applied, Heart ([4]; 24 h): -- (less than 0.004%)
- Bio-distribution of ^64 Cu as % of Original Applied, Kidney ([4]; 24 h): 0.04%
- Bio-distribution of ^64 Cu as % of Original Applied, Liver ([4]; 24 h): 0.17%
- Bio-distribution of ^64 Cu as % of Original Applied, Skin (application site) ([4]; 24 h): 3.81%
- Bio-distribution of ^64 Cu as % of Original Applied, Spleen ([4]; 24 h): -- (less than 0.004%)
- Bio-distribution of ^64 Cu as % of Original Applied, Thymus ([4]; 24 h): -- (less than 0.004%)
- Bio-distribution of ^64 Cu as % of Original Applied, Faeces ([4]; 24 h): 28.9%
- Bio-distribution of ^64 Cu as % of Original Applied, Blood (20 ml) ([4]; 24 h): 0.08%
- Bio-distribution of ^64 Cu as % of Original Applied, Urine ([4]; 24 h): 0.21%
- Bio-distribution of ^64 Cu as % of Original Applied, Adrenals ([4]; 48 h): -- (less than 0.004%)
- Bio-distribution of ^64 Cu as % of Original Applied, Brain ([4]; 48 h): 0.01%
- Bio-distribution of ^64 Cu as % of Original Applied, Heart ([4]; 48 h): -- (less than 0.004%)
- Bio-distribution of ^64 Cu as % of Original Applied, Kidney ([4]; 48 h): 0.04%
- Bio-distribution of ^64 Cu as % of Original Applied, Liver ([4]; 48 h): 0.15%
- Bio-distribution of ^64 Cu as % of Original Applied, Skin (application site) ([4]; 48 h): 1.02%
- Bio-distribution of ^64 Cu as % of Original Applied, Spleen ([4]; 48 h): 0.01%
- Bio-distribution of ^64 Cu as % of Original Applied, Thymus ([4]; 48 h): -- (less than 0.004%)
- Bio-distribution of ^64 Cu as % of Original Applied, Faeces ([4]; 48 h): 49.9%
- Bio-distribution of ^64 Cu as % of Original Applied, Blood (20 ml) ([4]; 48 h): 0.08%
- Bio-distribution of ^64 Cu as % of Original Applied, Urine ([4]; 48 h): 0.40%
- ^64 Cu found in the faeces ([4]; after two days, topical application, 2880 min): about 50%
- clearance of ^64 Cu from the system ([4]; result in words): cleared from the system in several days
- activity of ^64 Cu in the skin at the site of application ([4]; result in words, 6 to 48 h): decreases linearly with time
